Experimental data from US10660877B2 (BRISTOL-MYERS SQUIBB COMPANY, priority 2016, dated 2020).
Like-named read-outs stand apart in the source and are kept apart here.

Columns and labels:
human TLR7 = human TLR7 (Homo sapiens (Human), UniProt Q9NYK1); experiment: TLR7 inhibition reporter assay (HEK-Blue cells, SEAP reporter, gardiquimod stimulation); format: cell-based
human TLR8 = human TLR8 (Homo sapiens (Human), UniProt Q9NR97); experiment: TLR8 inhibition reporter assay (HEK-Blue cells, SEAP reporter, R848 stimulation);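 also: compounds tested from 0.05 nM to 50 µM, 22 h at 37 °C, SEAP measured with HEK-Blue Detection, inhibition relative to agonist plus DMSO versus a known inhibitor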
human TLR8, sequence (Q9NR97 27-1041): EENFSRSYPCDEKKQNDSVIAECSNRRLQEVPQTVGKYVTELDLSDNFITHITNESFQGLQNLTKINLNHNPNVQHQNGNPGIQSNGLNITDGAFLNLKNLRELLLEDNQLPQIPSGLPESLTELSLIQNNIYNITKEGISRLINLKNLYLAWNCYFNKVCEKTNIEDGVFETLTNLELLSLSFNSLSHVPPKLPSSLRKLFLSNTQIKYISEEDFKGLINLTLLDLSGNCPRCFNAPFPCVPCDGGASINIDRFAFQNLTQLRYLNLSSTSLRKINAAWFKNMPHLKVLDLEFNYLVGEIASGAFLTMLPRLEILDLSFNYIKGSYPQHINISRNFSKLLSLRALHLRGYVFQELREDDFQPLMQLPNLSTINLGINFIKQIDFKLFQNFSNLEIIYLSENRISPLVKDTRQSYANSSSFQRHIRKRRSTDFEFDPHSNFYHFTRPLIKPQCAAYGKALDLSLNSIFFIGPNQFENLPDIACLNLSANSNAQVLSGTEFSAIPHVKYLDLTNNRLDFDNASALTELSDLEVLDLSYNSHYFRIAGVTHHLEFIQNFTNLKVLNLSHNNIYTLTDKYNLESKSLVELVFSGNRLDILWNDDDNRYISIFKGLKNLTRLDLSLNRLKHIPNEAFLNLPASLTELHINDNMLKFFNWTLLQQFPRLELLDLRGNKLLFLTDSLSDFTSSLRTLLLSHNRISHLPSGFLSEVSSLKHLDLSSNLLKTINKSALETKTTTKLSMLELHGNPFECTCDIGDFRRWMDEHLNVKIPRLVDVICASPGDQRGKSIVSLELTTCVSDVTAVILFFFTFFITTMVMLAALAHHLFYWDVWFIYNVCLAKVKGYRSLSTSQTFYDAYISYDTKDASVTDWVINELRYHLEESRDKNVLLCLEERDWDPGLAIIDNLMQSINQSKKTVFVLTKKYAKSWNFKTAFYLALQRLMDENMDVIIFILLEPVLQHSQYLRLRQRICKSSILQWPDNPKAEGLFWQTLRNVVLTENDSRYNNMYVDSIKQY

human TLR9 = human TLR9 (Homo sapiens (Human), UniProt Q9NR96); experiment: TLR9 inhibition reporter assay (HEK-Blue cells, SEAP reporter, ODN2006 stimulation);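 also: compounds tested over 0.05 nM to 50 µM, 22 h incubation, inhibition taken as SEAP signal drop from agonist plus DMSO wells toward a known inhibitor control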
human TLR9, sequence (Q9NR96 26-1032): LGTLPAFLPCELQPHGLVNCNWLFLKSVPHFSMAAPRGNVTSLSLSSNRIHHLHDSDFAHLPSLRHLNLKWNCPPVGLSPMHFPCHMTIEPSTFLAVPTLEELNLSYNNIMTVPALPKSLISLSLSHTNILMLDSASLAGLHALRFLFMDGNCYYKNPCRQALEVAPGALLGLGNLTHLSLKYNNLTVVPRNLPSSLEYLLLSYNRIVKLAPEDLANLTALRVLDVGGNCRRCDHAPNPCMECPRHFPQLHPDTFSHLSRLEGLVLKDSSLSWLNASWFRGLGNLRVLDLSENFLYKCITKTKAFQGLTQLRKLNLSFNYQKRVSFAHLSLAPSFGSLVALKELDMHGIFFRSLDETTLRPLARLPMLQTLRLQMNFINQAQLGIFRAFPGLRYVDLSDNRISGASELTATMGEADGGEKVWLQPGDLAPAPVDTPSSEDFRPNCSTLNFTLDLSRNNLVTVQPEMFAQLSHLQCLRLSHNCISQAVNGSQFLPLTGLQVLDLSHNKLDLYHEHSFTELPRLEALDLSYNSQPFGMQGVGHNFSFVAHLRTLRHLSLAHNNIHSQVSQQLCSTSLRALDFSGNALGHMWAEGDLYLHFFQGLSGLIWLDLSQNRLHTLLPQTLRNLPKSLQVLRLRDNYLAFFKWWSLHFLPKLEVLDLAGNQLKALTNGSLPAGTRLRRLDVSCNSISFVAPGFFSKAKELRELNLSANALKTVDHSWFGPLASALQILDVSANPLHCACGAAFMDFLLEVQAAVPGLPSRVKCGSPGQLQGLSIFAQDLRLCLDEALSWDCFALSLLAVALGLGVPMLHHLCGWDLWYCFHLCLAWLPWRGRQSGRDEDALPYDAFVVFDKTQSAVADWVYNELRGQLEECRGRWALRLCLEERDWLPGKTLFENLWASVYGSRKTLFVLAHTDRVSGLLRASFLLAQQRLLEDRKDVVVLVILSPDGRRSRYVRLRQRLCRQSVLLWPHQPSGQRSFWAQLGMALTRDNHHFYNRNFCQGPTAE

[1] = HEK-Blue cells overexpressing human TLR7, gardiquimod 7.5 μM
[2] = read-out: TLR8 IC50, HEK-Blue cells overexpressing human TLR8, R848 15.9 μM
[3] = read-out: TLR9 IC50, HEK-Blue cells overexpressing human TLR9, ODN2006 5 nM
[4] = TLR8 IC50, HEK-Blue cells overexpressing human TLR8, R848 15.9 μM
[5] = TLR9 IC50, HEK-Blue cells overexpressing human TLR9, ODN2006 5 nM

human TLR7, sequence (Q9NYK1 27-1049): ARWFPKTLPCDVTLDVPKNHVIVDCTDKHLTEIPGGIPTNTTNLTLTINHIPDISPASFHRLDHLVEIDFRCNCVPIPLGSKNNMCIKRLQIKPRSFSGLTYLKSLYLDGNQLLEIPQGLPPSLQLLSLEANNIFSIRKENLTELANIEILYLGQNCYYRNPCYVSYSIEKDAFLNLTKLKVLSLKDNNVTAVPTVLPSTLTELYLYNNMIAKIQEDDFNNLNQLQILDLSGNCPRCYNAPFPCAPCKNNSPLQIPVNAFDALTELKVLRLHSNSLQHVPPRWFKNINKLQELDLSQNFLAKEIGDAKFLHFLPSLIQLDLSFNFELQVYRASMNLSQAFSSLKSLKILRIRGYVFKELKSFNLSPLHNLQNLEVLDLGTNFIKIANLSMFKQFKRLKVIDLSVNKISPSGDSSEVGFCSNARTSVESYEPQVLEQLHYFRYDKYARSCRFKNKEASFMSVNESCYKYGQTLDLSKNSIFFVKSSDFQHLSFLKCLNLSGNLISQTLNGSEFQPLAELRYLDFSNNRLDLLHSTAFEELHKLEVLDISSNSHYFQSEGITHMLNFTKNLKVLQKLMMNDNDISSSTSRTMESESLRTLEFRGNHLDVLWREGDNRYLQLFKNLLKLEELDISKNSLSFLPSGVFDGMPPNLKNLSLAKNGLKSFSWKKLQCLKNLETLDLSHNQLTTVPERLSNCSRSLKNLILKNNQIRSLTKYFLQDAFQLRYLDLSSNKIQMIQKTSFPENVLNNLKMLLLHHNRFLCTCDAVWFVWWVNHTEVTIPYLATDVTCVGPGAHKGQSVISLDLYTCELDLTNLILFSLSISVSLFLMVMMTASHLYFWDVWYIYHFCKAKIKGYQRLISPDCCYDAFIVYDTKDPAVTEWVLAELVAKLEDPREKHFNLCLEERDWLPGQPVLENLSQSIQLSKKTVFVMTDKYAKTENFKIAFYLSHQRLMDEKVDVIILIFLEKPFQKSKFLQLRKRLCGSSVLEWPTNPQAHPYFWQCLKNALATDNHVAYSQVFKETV

In the case of `CCc1c(-c2ccnc(OC)c2)[nH]c2ccc(C3CCNCC3)cc12` [Example 61, 3-ethyl-2-(2-methoxypyridin-4-yl)-5-(piperidin-4-yl)-1H-indole], the IC50 (human TLR7; [1]) is reported as 207 nM, the IC50 (human TLR8; [2]) is reported as 58.8 nM and the IC50 (human TLR9; [3]) is reported as 2370 nM.
`Cc1cc(-c2[nH]c3ccc(C4CCN(C(=O)C(C)(C)O)CC4)cc3c2C(C)C)cc(C)n1` [Example 173, 1-(4-(2-(2,6-dimethylpyridin-4-yl)-3-isopropyl-1H-indol-5-yl)piperidin-1-yl)-2-hydroxy-2-methylpropan-1-one] gave an IC50 (human TLR7; [1]) of 6.2 nM, an IC50 (human TLR8; [2]) of 88.3 nM and an IC50 (human TLR9; [3]) of 43300 nM.
`Cc1cc(-c2[nH]c3ccc(C4CCN(C5CC(C)OC(C)C5)CC4)cc3c2C(C)C)cc(C)n1` (stereo not drawn) [Example 454, 2-(2,6-dimethylpyridin-4-yl)-5-(1-(2,6-dimethyltetrahydro-2H-pyran-4-yl)piperidin-4-yl)-3-isopropyl-1H-indole] was tested, and the IC50 (human TLR7; [1]) was 11 nM, the IC50 (human TLR8; [2]) was 10.2 nM and the IC50 (human TLR9; [3]) was 358 nM.
For `Cc1cc(-c2[nH]c3ccc(C4CCN(CC(=O)NC5CCCOC5)CC4)cc3c2C(C)C)cc(C)n1` (stereo not drawn) [Example 279, 2-(4-(2-(2,6-dimethylpyridin-4-yl)-3-isopropyl-1H-indol-5-yl)piperidin-1-yl)-N-(tetrahydro-2H-pyran-3-yl)acetamide], the IC50 (human TLR7; [1]) was 2.3 nM, the IC50 (human TLR8; [2]) was 11 nM and the IC50 (human TLR9; [3]) was 512 nM.
For `CCc1c(-c2cc(C)nc(C)c2)[nH]c2ccc(C3CCN(CC(=O)N(C)C)CC3)cc12` [Example 526, 2-(4-(2-(2,6-dimethylpyridin-4-yl)-3-ethyl-1H-indol-5-yl)piperidin-1-yl)-N,N-dimethylacetamide], the IC50 (human TLR7; [1]) was 10.5 nM, the IC50 (human TLR8; [2]) was 24.7 nM and the IC50 (human TLR9; [3]) was 102 nM.
With `Cc1cc(-c2[nH]c3ccc(C4CCN(C(=O)C5CCOC5)CC4)cc3c2C(C)C)ccn1` (stereo not drawn) [Example 599, (4-(3-isopropyl-2-(2-methylpyridin-4-yl)-1H-indol-5-yl)piperidin-1-yl)(tetrahydrofuran-3-yl)methanone] the IC50 (human TLR7; [1]) was 18.5 nM, the IC50 (human TLR8; [2]) was 178 nM and the IC50 (human TLR9; [3]) was 43800 nM.
`Cc1cc(-c2[nH]c3ccc(C4CCN(C(=O)CN5CCCC(C)(C)C5)CC4)cc3c2C(C)C)cc(C)n1` [Example 358, 2-(3,3-dimethylpiperidin-1-yl)-1-(4-(2-(2,6-dimethylpyridin-4-yl)-3-isopropyl-1H-indol-5-yl)piperidin-1-yl)ethan-1-one] showed an IC50 (human TLR7; [1]) of 12.9 nM, an IC50 (human TLR8; [2]) of 23.7 nM and an IC50 (human TLR9; [3]) of 943 nM.
With `Cc1cc(-c2[nH]c3ccc(C4CCN(C5CCOC5)CC4)cc3c2C(C)C)c(C)cn1` (stereo not drawn) [Example 728, 2-(2,5-dimethylpyridin-4-yl)-3-isopropyl-5-(1-(tetrahydrofuran-3-yl)piperidin-4-yl)-1H-indole] the IC50 (human TLR7; [1]) was 6.7 nM, the IC50 (human TLR8; [2]) was 1.1 nM and the IC50 (human TLR9; [3]) was 1340 nM.
With `CCc1c(-c2ccnc(OC)c2)[nH]c2ccc(C3CCN(C4CCN(CC5CC5)CC4)CC3)cc12` [Example 789, 5-(1′-(cyclopropylmethyl)-[1,4′-bipiperidin]-4-yl)-3-ethyl-2-(2-methoxypyridin-4-yl)-1H-indole] the IC50 (human TLR7; [1]) was 599 nM, the IC50 (human TLR8; [2]) was 269 nM and the IC50 (human TLR9; [3]) was 408 nM.
With `Cc1cc(-c2[nH]c3ccc(C4CCN(C(=O)C(C)(C)C#N)CC4)cc3c2C(C)C)ccn1` [Example 615, 3-(4-(3-isopropyl-2-(2-methylpyridin-4-yl)-1H-indol-5-yl)piperidin-1-yl)-2,2-dimethyl-3-oxopropanenitrile] the IC50 (human TLR7; [1]) was 80.9 nM, the IC50 (human TLR8; [2]) was 243 nM and the IC50 (human TLR9; [3]) was 12200 nM.
For `Cc1nccc(-c2[nH]c3ccc(C4CCN(C(=O)C5CC(=O)N(C)C5)CC4)cc3c2C(C)C)c1F` (stereo not drawn) [Example 582, 4-(4-(2-(3-fluoro-2-methylpyridin-4-yl)-3-isopropyl-1H-indol-5-yl)piperidine-1-carbonyl)-1-methylpyrrolidin-2-one], the IC50 (human TLR7; [1]) was 30.1 nM, the IC50 (human TLR8; [2]) was 48 nM and the IC50 (human TLR9; [3]) was greater than 50000 nM.
In the case of `Cc1cc(-c2[nH]c3ccc(C4CCN(CC5CCN(C(C)C)CC5)CC4)cc3c2C(C)C)ccn1` [Example 742, 3-isopropyl-5-(1-((1-isopropylpiperidin-4-yl)methyl)piperidin-4-yl)-2-(2-methylpyridin-4-yl)-1H-indole], the IC50 (human TLR7; [1]) is reported as 9.2 nM, the IC50 (human TLR8; [2]) is reported as 5.5 nM and the IC50 (human TLR9; [3]) is reported as 101 nM.
In the case of `Cc1cc(-c2[nH]c3ccc(C4CCN(CC(F)(F)F)CC4)cc3c2C(C)C)cc(C)n1` [Example 310, 2-(2,6-dimethylpyridin-4-yl)-3-isopropyl-5-(1-(2,2,2-trifluoroethyl)piperidin-4-yl)-1H-indole], the IC50 (human TLR7; [1]) is reported as 230 nM, the IC50 (human TLR8; [2]) is reported as 895 nM and the IC50 (human TLR9; [3]) is reported as 29900 nM.
Work on `Cc1cc(-c2[nH]c3ccc(C4CCN(CC5(CO)COC5)CC4)cc3c2C(C)C)cc(C)n1` [Example 319, (3-((4-(2-(2,6-dimethylpyridin-4-yl)-3-isopropyl-1H-indol-5-yl)piperidin-1-yl)methyl)oxetan-3-yl)methanol] yielded an IC50 (human TLR7; [1]) of 2.7 nM, an IC50 (human TLR8; [2]) of 4 nM and an IC50 (human TLR9; [3]) of 355 nM.
For `Cc1c(-c2[nH]c3ccc(C4CCNCC4)cc3c2C(C)C)ccnc1N` [Example 11, 4-(3-isopropyl-5-(piperidin-4-yl)-1H-indol-2-yl)-3-methylpyridin-2-amine], the IC50 (human TLR7; [1]) was 358 nM, the IC50 (human TLR8; [4]) was 90.6 nM and the IC50 (human TLR9; [5]) was 309 nM.
`Cc1cc(-c2[nH]c3ccc(C4CCN(CC5COC5)CC4)cc3c2C(C)C)cc(C)n1` [Example 333, 2-(2,6-dimethylpyridin-4-yl)-3-isopropyl-5-(1-(oxetan-3-ylmethyl)piperidin-4-yl)-1H-indole] gave an IC50 (human TLR7; [1]) of 0.8 nM, an IC50 (human TLR8; [2]) of 1.4 nM and an IC50 (human TLR9; [3]) of 364 nM.
`Cc1cc(-c2[nH]c3ccc(C4CCN(C(=O)CNC(CO)CC(C)C)CC4)cc3c2C(C)C)cc(C)n1` (stereo not drawn) [Example 382, 1-(4-(2-(2,6-dimethylpyridin-4-yl)-3-isopropyl-1H-indol-5-yl)piperidin-1-yl)-2-((1-hydroxy-4-methylpentan-2-yl)amino)ethan-1-one] gave an IC50 (human TLR7; [1]) of 7.6 nM, an IC50 (human TLR8; [2]) of 44.1 nM and an IC50 (human TLR9; [3]) of 769 nM.
`Cc1cc(-c2[nH]c3cc(F)c(C4CCN(C5CC(C)OC(C)C5)CC4)cc3c2C(C)C)cc(C)n1` (stereo not drawn) [Example 830, 2-(2,6-dimethylpyridin-4-yl)-5-(1-(2,6-dimethyltetrahydro-2H-pyran-4-yl)piperidin-4-yl)-6-fluoro-3-isopropyl-1H-indole] was tested, and the IC50 (human TLR7; HEK-Blue cells, gardiquimod 7.5 μM) was 4.8 nM, the IC50 (human TLR8; read-out: TLR8 IC50, HEK-Blue cells, R848 15.9 μM) was 17.3 nM and the IC50 (human TLR9; read-out: TLR9 IC50, HEK-Blue cells, ODN2006 5 nM) was 229 nM.
For `COc1ncc(CN2CCC(c3ccc4[nH]c(-c5cc(C)nc(C)c5)c(C(C)C)c4c3)CC2)cn1` [Example 430, 2-(2,6-dimethylpyridin-4-yl)-3-isopropyl-5-(1-((2-methoxypyrimidin-5-yl)methyl)piperidin-4-yl)-1H-indole], the IC50 (human TLR7; [1]) was 10.1 nM, the IC50 (human TLR8; [2]) was 5.9 nM and the IC50 (human TLR9; [3]) was 369 nM.
With `Cc1cc(-c2[nH]c3ccc(C4CCN(Cc5nnc(C6CC6)o5)CC4)cc3c2C(C)C)c(C)cn1` [Example 697, 2-cyclopropyl-5-((4-(2-(2,5-dimethylpyridin-4-yl)-3-isopropyl-1H-indol-5-yl)piperidin-1-yl)methyl)-1,3,4-oxadiazole] the IC50 (human TLR7; [1]) was 223 nM, the IC50 (human TLR8; [2]) was 20.7 nM and the IC50 (human TLR9; [3]) was greater than 50000 nM.
For `Cc1cc(-c2[nH]c3ccc(C4CCN(Cc5cc(C)on5)CC4)cc3c2C(C)C)c(F)cn1` [Example 686, 3-((4-(2-(5-fluoro-2-methylpyridin-4-yl)-3-isopropyl-1H-indol-5-yl)piperidin-1-yl)methyl)-5-methylisoxazole], the IC50 (human TLR7; [1]) was 35.2 nM, the IC50 (human TLR8; [2]) was 4.1 nM and the IC50 (human TLR9; [3]) was 9450 nM.
Work on `Cc1cc(-c2[nH]c3ccc(C4CCNCC4)cc3c2C(C)C)c(C)c(C)n1` [Example 39, 3-isopropyl-5-(piperidin-4-yl)-2-(2,3,6-trimethylpyridin-4-yl)-1H-indole] yielded an IC50 (human TLR7; [1]) of 7.2 nM, an IC50 (human TLR8; [2]) of 22.3 nM and an IC50 (human TLR9; [3]) of 955 nM.
`CC(C)c1c(-c2cc(Cl)ncc2C#N)[nH]c2ccc(C3CCNCC3)cc12` [Example 26, 6-chloro-4-(3-isopropyl-5-(piperidin-4-yl)-1H-indol-2-yl)nicotinonitrile] showed an IC50 (human TLR7; [1]) of 199 nM, an IC50 (human TLR8; [2]) of 481 nM and an IC50 (human TLR9; [3]) of 6320 nM.
Molecule `Cc1cc(-c2[nH]c3ccc(C4CCN(CC(=O)N(C)C)CC4)cc3c2C(C)C)c(F)c(C)n1` [Example 645, 2-(4-(2-(3-fluoro-2,6-dimethylpyridin-4-yl)-3-isopropyl-1H-indol-5-yl)piperidin-1-yl)-N,N-dimethylacetamide] has an IC50 (human TLR7; [1]) of 1.7 nM, an IC50 (human TLR8; [2]) of 5.8 nM and an IC50 (human TLR9; [3]) of 7430 nM.
Work on `Cc1cc(-c2[nH]c3ccc(C4CCN(S(=O)(=O)c5ccc(F)cc5)CC4)cc3c2C(C)C)ccn1` [Example 551, 5-(1-((4-fluorophenyl)sulfonyl)piperidin-4-yl)-3-isopropyl-2-(2-methylpyridin-4-yl)-1H-indole] yielded an IC50 (human TLR7; [1]) of 486 nM, an IC50 (human TLR8; [2]) of 1030 nM and an IC50 (human TLR9; [3]) greater than 50000 nM.
For `Cc1cc(-c2[nH]c3ccc(C4CCN(C(=O)CN(C)CCO)CC4)cc3c2C(C)C)cc(C)n1` [Example 420, 1-(4-(2-(2,6-dimethylpyridin-4-yl)-3-isopropyl-1H-indol-5-yl)piperidin-1-yl)-2-((2-hydroxyethyl)(methyl)amino)ethan-1-one], the IC50 (human TLR7; [1]) was 1.5 nM, the IC50 (human TLR8; [2]) was 9.9 nM and the IC50 (human TLR9; [3]) was 632 nM.
With `Cc1cc(-c2[nH]c3ccc(C4CCN(C(=O)CNCC(C)(C)N5CCOCC5)CC4)cc3c2C(C)C)cc(C)n1` [Example 371, 1-(4-(2-(2,6-dimethylpyridin-4-yl)-3-isopropyl-1H-indol-5-yl)piperidin-1-yl)-2-((2-methyl-2-morpholinopropyl)amino)ethan-1-one] the IC50 (human TLR7; [1]) was 3.7 nM, the IC50 (human TLR8; [4]) was 20.4 nM and the IC50 (human TLR9; [5]) was 241 nM.
`Cc1cc(-c2[nH]c3ccc(C4CCN(C(=O)C5(C)CCN(C(C)C)CC5)CC4)cc3c2C(C)C)cc(C)n1` [Example 177, (4-(2-(2,6-dimethylpyridin-4-yl)-3-isopropyl-1H-indol-5-yl)piperidin-1-yl)(1-isopropyl-4-methylpiperidin-4-yl)methanone] showed an IC50 (human TLR7; [1]) of 13.1 nM, an IC50 (human TLR8; [2]) of 67.2 nM and an IC50 (human TLR9; [3]) of 937 nM.
